Reference: PubChem BioAssay (NCI)
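Dose response: 5 concentrations. Exposure: 48 h. Format: 96-well plates. Endpoint: linear interpolation; highest concentration if not reached. The concentration for full growth arrest is given as TGI.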

Assays:
Test in all cases: NCI tumour cell line growth inhibition, 48 h
[1] = system: OVCAR-8 ovarian
[2] = system: IGROV1 ovarian
[3] = system: UACC-257 melanoma
[4] = system: SF-539 CNS
[5] = system: HOP-92 NSCLC
[6] = system: RXF 393 renal
[7] = system: SW-620 colon
[8] = system: TK-10 renal
[9] = system: K-562 leukemia
[10] = system: RPMI-8226 leukemia
[11] = system: SR leukemia
[12] = system: EKVX NSCLC
[13] = system: A549 NSCLC
[14] = system: BT-549 breast
[15] = system: SK-MEL-2 melanoma
[16] = system: CCRF-CEM leukemia
[17] = system: OVCAR-3 ovarian
[18] = system: NCI-H226 lung
[19] = system: MDA-MB-231 breast
[20] = system: ACHN renal
[21] = system: MCF7 breast
[22] = system: SNB-75 CNS
[23] = system: NCI-H460 lung
[24] = system: NCI/ADR-RES ovarian
[25] = system: T-47D breast
[26] = system: SF-295 CNS
[27] = system: MOLT-4 leukemia
[28] = system: HS 578T breast
[29] = system: LOX IMVI melanoma
[30] = system: HOP-62 NSCLC
[31] = system: OVCAR-4 ovarian
[32] = system: COLO 205 colon
[33] = system: SK-MEL-28 melanoma
[34] = system: UACC-62 melanoma
[35] = system: NCI-H23 lung
[36] = system: HCT-15 colon
[37] = system: SK-MEL-5 melanoma
[38] = system: MDA-N
[39] = system: A498 renal
[40] = system: NCI-H522 lung
[41] = system: M14 melanoma
[42] = system: SN12C renal
[43] = system: OVCAR-5 ovarian
[44] = system: MDA-MB-435
[45] = system: HL-60(TB) leukemia
[46] = system: KM12 colon
[47] = system: 786-0 renal
[48] = system: U251 CNS
[49] = system: UO-31 renal
[50] = system: MALME-3M melanoma
[51] = system: HT29 colon
[52] = system: PC-3 prostate
[53] = system: SNB-19 CNS
[54] = system: DU-145 prostate
[55] = system: CAKI-1 renal
[56] = system: SK-OV-3 ovarian
[57] = system: SF-268 CNS
[58] = system: HCT-116 colon

With `Cc1c(C(=O)O)nc(/C=C/C(=O)O)[nH]c1=O` the TGI [1] was > 100 µM, the TGI [2] was > 100 µM and the TGI [3] was > 100 µM. The TGI [4] was > 100 µM, the TGI [5] was > 100 µM and the TGI [6] was > 100 µM. The TGI [7] was > 100 µM, the TGI [8] was > 100 µM and the TGI [9] was > 100 µM. The TGI [10] was > 100 µM, the TGI [11] was > 100 µM and the TGI [12] was > 100 µM. The TGI [13] was > 100 µM, the TGI [14] was > 100 µM and the TGI [15] was > 100 µM. The TGI [16] was > 100 µM, the TGI [17] was > 100 µM and the TGI [18] was > 100 µM. For the same molecule, the TGI [19] was > 100 µM, the TGI [20] was > 100 µM and the TGI [21] was > 100 µM. The TGI [22] was > 100 µM, the TGI [23] was > 100 µM and the TGI [24] was > 100 µM. The TGI [25] was > 100 µM, the TGI [26] was > 100 µM and the TGI [27] was > 100 µM. For the same molecule, the TGI [28] was > 100 µM, the TGI [29] was > 100 µM and the TGI [30] was > 100 µM. The TGI [31] was > 100 µM, the TGI [32] was > 100 µM and the TGI [33] was > 100 µM. For the same molecule, the TGI [34] was > 100 µM, the TGI [35] was > 100 µM and the TGI [36] was > 100 µM. The TGI [37] was > 100 µM, the TGI [38] was > 100 µM and the TGI [39] was > 100 µM. For the same molecule, the TGI [40] was > 100 µM, the TGI [41] was > 100 µM and the TGI [42] was > 100 µM. The TGI [43] was > 100 µM, the TGI [44] was > 100 µM and the TGI [45] was > 100 µM. For the same molecule, the TGI [46] was > 100 µM, the TGI [47] was > 100 µM and the TGI [48] was > 100 µM. The TGI [49] was > 100 µM, the TGI [50] was > 100 µM and the TGI [51] was > 100 µM. For the same molecule, the TGI [52] was > 100 µM, the TGI [53] was > 100 µM and the TGI [54] was > 100 µM. The TGI [55] was > 100 µM, the TGI [56] was > 100 µM and the TGI [57] was > 100 µM. The TGI [58] was > 100 µM.

With `S=C(NC/C(Br)=C/Br)Nc1cccc2ccccc12` the TGI [1] was > 100 µM, the TGI [2] was > 100 µM and the TGI [3] was > 100 µM. The TGI [4] was 69.1 µM, the TGI [5] was 55.9 µM and the TGI [6] was > 100 µM. For the same molecule, the TGI [8] was > 100 µM, the TGI [9] was 31 µM and the TGI [10] was 44.7 µM. The TGI [11] was > 100 µM, the TGI [12] was > 100 µM and the TGI [13] was > 100 µM. It also gave a TGI [14] of 84.6 µM, a TGI [15] of 48.5 µM and a TGI [16] of 66.2 µM. For the same molecule, the TGI [17] was 71.8 µM, the TGI [18] was > 100 µM and the TGI [19] was 51.3 µM. For the same molecule, the TGI [20] was 86.6 µM, the TGI [21] was 44.4 µM and the TGI [22] was > 100 µM. For the same molecule, the TGI [24] was 50.9 µM, the TGI [25] was > 100 µM and the TGI [26] was > 100 µM. For the same molecule, the TGI [27] was 46.8 µM, the TGI [28] was > 100 µM and the TGI [29] was > 100 µM. For the same molecule, the TGI [30] was 94 µM, the TGI [31] was > 100 µM and the TGI [32] was 32.7 µM. For the same molecule, the TGI [34] was 67.7 µM, the TGI [35] was 74.5 µM and the TGI [36] was > 100 µM. For the same molecule, the TGI [37] was 34.3 µM, the TGI [38] was 72.7 µM and the TGI [39] was 90.4 µM. For the same molecule, the TGI [40] was 74.6 µM, the TGI [41] was 43.7 µM and the TGI [42] was 53.1 µM. The TGI [43] was > 100 µM, the TGI [44] was > 100 µM and the TGI [45] was 37.3 µM. For the same molecule, the TGI [47] was > 100 µM, the TGI [48] was > 100 µM and the TGI [49] was 55.2 µM. For the same molecule, the TGI [50] was 78.8 µM, the TGI [51] was > 100 µM and the TGI [52] was 71.7 µM. The TGI [53] was > 100 µM, the TGI [54] was > 100 µM and the TGI [55] was > 100 µM. The TGI [56] was > 100 µM and the TGI [58] was 61.9 µM.

In the case of `Nc1ccc2nc3n(c(=O)c2c1)CCCCC3`, the TGI [1] is reported as > 100 µM, the TGI [2] is reported as > 100 µM and the TGI [3] is reported as > 100 µM. For the same molecule, the TGI [4] was > 100 µM, the TGI [5] was > 100 µM and the TGI [6] was > 100 µM. For the same molecule, the TGI [7] was > 100 µM, the TGI [8] was > 100 µM and the TGI [9] was > 100 µM. The TGI [10] was > 100 µM, the TGI [11] was > 100 µM and the TGI [12] was > 100 µM. The TGI [13] was > 100 µM, the TGI [14] was > 100 µM and the TGI [15] was > 100 µM. For the same molecule, the TGI [16] was > 100 µM, the TGI [17] was > 100 µM and the TGI [18] was > 100 µM. For the same molecule, the TGI [19] was > 100 µM, the TGI [20] was > 100 µM and the TGI [21] was > 100 µM. The TGI [22] was > 100 µM, the TGI [23] was > 100 µM and the TGI [24] was > 100 µM. For the same molecule, the TGI [25] was > 100 µM, the TGI [26] was > 100 µM and the TGI [27] was > 100 µM. The TGI [28] was > 100 µM, the TGI [29] was > 100 µM and the TGI [30] was > 100 µM. For the same molecule, the TGI [31] was > 100 µM, the TGI [32] was > 100 µM and the TGI [33] was > 100 µM. For the same molecule, the TGI [34] was > 100 µM, the TGI [35] was > 100 µM and the TGI [36] was > 100 µM. The TGI [37] was > 100 µM, the TGI [38] was > 100 µM and the TGI [39] was > 100 µM. For the same molecule, the TGI [40] was > 100 µM, the TGI [41] was > 100 µM and the TGI [42] was > 100 µM. The TGI [43] was > 100 µM, the TGI [44] was > 100 µM and the TGI [45] was > 100 µM. For the same molecule, the TGI [46] was > 100 µM, the TGI [47] was > 100 µM and the TGI [48] was > 100 µM. The TGI [49] was > 100 µM, the TGI [50] was > 100 µM and the TGI [51] was > 100 µM. The TGI [52] was > 100 µM, the TGI [54] was > 100 µM and the TGI [55] was > 100 µM. The TGI [56] was > 100 µM, the TGI [57] was > 100 µM and the TGI [58] was > 100 µM.
